Tested on: CXCL1 in human whole blood
Assay: Human whole blood CXCL1 assay (Auranofin stimulation)
Assay type: cell-based
Settings: 5 μM Auranofin, 24 hours, CXCL1 quantified, average of donors, read-out: WB EC50 nM (n = 4)
Description: Human Whole Blood CXCL1 Assay
Human blood collected in sodium heparin glass vacutainer tubes (BD Biosciences #366480) was obtained from Stanford Blood Center (Palo Alto, Ca). Red blood cell Ammonium-Chloride-Potassium (ACK) lysis buffer was obtained from Invitrogen (A10492-01) Phosphate buffered saline (PBS, 21-031-CV) and RPMI640 media (10-040-CV) were purchased from Cellgro. 50 ml conical tubes were from BD Biosciences (352070). Multiscreen Filter plates (MSBVS 1210) used along with vacuum manifold for 96-well plate (MAVM0960R) were purchased from EMD Millipore Inc. Transfer pipettes (13-711-20) and hemocytometer (0267110) were purchased from Thermo Fisher Scientific. An Allegra X15R from Beckmann Coulter was used for all the centrifugation steps in the isolation of PBMCs.
ASK1 inhibitors and Auranofin (Enzo Life Sciences Inc. BML-EI206-0100) were dissolved in dimethyl sulfoxide (DMSO, Sigma Aldrich cat#472301) at a concentration of 10 mM and 100 mM, respectively. […] CXCL1 protein was quantified with an ELISA assay from Millipore.
A 10 mM ASK1 inhibitor DMSO stock was diluted in saline to create a 100 μM (10×) working solution. […] 50 μl of the resulting supernatant from each well was transferred to a new 96 well assay plate and the amount of CXCL1 was quantified by a Procarta immunoassay following the manufacturer's instructions. […]

| EC50 | SMILES |
| --- | --- |
| 243 nM | O=C(Nc1csc(-c2nncn2C2CC2)n1)c1cc(-n2cnc(C3CC3)c2)c(N2CCOCC2)cn1 [Example 1, 4-(4-cyclopropyl-1H-imidazol-1-yl)-N-(2-(4-cyclopropyl-4H-1,2,4-triazol-3-yl)thiazol-4-yl)-5-morpholinopicolinamide] |
| 202 nM | C[C@H](n1cnnc1-c1nc(NC(=O)c2cc(-n3cnc(C4CC4)c3)c(N3CCOCC3)cn2)cs1)C(F)(F)F [Example 3, (S)-4-(4-cyclopropyl-1H-imidazol-1-yl)-5-morpholino-N-(2-(4-(1,1,1-trifluoropropan-2-yl)-4H-1,2,4-triazol-3-yl)thiazol-4-yl)picolinamide] |

— patent US10307427B2, “Apoptosis signal-regulating kinase inhibitors” (Gilead Sciences, Inc., priority 2012, dated 2019)
